Where two headings read alike, the source gives them in different places. Values belong to the compound of their own block, whether it stands above or below them.
Assays:
[1] = system: P. falciparum asexual blood stages; details: read-out: Pf Asexual blood stages XC50, cited from earlier work
HepG2 cells = assay: HepG2 cytotoxicity assay; format: cell-based
How it was run: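 Luminescent read-out (CellTiter-Glo) taken 10 min after reagent addition at RT; plates and reagent pre-equilibrated 30 min at RT.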

[2] = system: P. falciparum stage V female gametocytes; assay: P. falciparum female gametocyte activation assay (Pf FGAA), 24 h or 48 h preincubation, Pfs25 expression readout; format: cell-based, Plasmodium falciparum NF54; details: mean, read-out: Gametocytes mean Pf FGAA IC50
How it was run: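 Female activation, triggered by xanthurenic acid and cooling, was scored by imaging Cy3-labelled anti-Pfs25 female gametes after 24 h at 26 °C. Beforehand, purified NF54 stage V gametocytes had been incubated with compound for either 24 h or 48 h (37 °C, 3% O2). Values are pIC50 from full-curve regression.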

[3] = system: P. falciparum stages IV–V gametocytes; assay: Gametocytocidal ATP-depletion assay (gametocyte ATP bioluminescence); format: cell-based, Plasmodium falciparum
How it was run: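 Read-out is luciferase luminescence of parasite ATP (BacTiter-Glo), standing in for viability. Double-purified mature stage IV–V gametocytes, 12,500 per well, were exposed 48 h at 37 °C in low-O2 gas; screening concentration 2 μM.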

[4] = TCAMS asexual blood stage data, ref 1 (Gamo, F. J. et al., Nature 465, 305-310, 2010)
[5] = P. falciparum female gametocytes
[6] = TCAMS data, ref 1 (Gamo et al., 2010)
[7] = P. falciparum female gametocyte activation assay

SMILES: COc1ccc2c(c1CCNCCCCNCCc1c(OC)ccc3c1CCCC3)CCCC2.CS(=O)(=O)O [TCMDC-137324]
IC50 [1, 6]: 380 nM | HepG2 cells mean TOX50 (HepG2 cells; mean): 1.68 µM | IC50 [2]: 640 nM | Gametocytes mean ATP inhibition at 2µM (%) [3]: 95.49%

SMILES: COc1ccc2nc(-c3ccccc3)cc(NCCCNc3cc(-c4ccccc4)nc4ccc(OC)cc34)c2c1.Cl [TCMDC-137734]
IC50 [1, 6]: 120 nM | HepG2 cells mean TOX50 (HepG2 cells; mean): 70.79 µM | IC50 [2]: 5600 nM | Gametocytes mean ATP inhibition at 2µM (%) [3]: 2.17%

SMILES: Cl.c1ccc2c(Nc3ccc(Cc4ccc(Nc5c6ccccc6nc6ccccc56)cc4)cc3)c3ccccc3nc2c1 [TCMDC-137354]
IC50 [1, 6]: 160 nM | HepG2 cells mean TOX50 (HepG2 cells; mean): 3.85 µM | IC50 [2]: 1040 nM | Gametocytes mean ATP inhibition at 2µM (%) [3]: -29.34%

SMILES: CCCCOc1c(CCNCCCCNCCc2cc(OC)c3ccccc3c2OCCCC)cc(OC)c2ccccc12.CS(=O)(=O)O [TCMDC-137848]
IC50 [1, 6]: 930 nM | HepG2 cells mean TOX50 (HepG2 cells; mean): 1.97 µM | IC50 [2]: 610 nM | Gametocytes mean ATP inhibition at 2µM (%) [3]: 84.96%

SMILES: CCCOc1ccc2ccccc2c1CNCCCCCCNCc1c(OCCC)ccc2ccccc12.CS(=O)(=O)O [TCMDC-137966]
IC50 [1, 6]: 790 nM | HepG2 cells mean TOX50 (HepG2 cells; mean): 2.00 µM | IC50 [2]: 1030 nM | Gametocytes mean ATP inhibition at 2µM (%) [3]: 42.35%

SMILES: CCn1c(-c2nonc2N)nc2c(-c3cc4ccccc4s3)ncc(C(=O)N3CCC(N)C3)c21.O=C(O)C(F)(F)F (centres unmarked) [TCMDC-135281]
IC50 [1, 4]: 870 nM | HepG2 cells mean TOX50 (HepG2 cells; HepG2 cells; mean): 1.00 µM | IC50 [2, 5]: 450 nM | Gametocytes mean ATP inhibition at 2µM [3]: 66.75%

SMILES: Cc1oc(-c2ccc(Cl)cc2)cc1C(=O)NCCC1CCN(CCCCCNC(=O)/C=C/c2ccc(Cl)c(Cl)c2)CC1 [TCMDC-140009]
IC50 [1, 6]: 450 nM | HepG2 cells mean TOX50 (HepG2 cells; mean): 3.31 µM | IC50 [2]: 1830 nM | Gametocytes mean ATP inhibition at 2µM (%) [3]: -9.24%

SMILES: CS(=O)(=O)O.FC(F)(F)COc1ccc(CCNCCCCNCCc2ccc(OCC(F)(F)F)c3ccccc23)c2ccccc12 [TCMDC-137282]
IC50 [1, 6]: 650 nM | HepG2 cells mean TOX50 (HepG2 cells; mean): 1.66 µM | IC50 [2]: 200 nM | Gametocytes mean ATP inhibition at 2µM (%) [3]: 91.27%

SMILES: COc1cccc(-c2csc(C(=O)NCC3CCN(Cc4ccc(C(C)(C)C)cc4)C3)c2)c1.O=C(O)C(F)(F)F (centres unmarked) [TCMDC-134447]
IC50 [1, 4]: 1180 nM | HepG2 cells mean TOX50 (HepG2 cells; HepG2 cells; mean): 5.78 µM | IC50 [2, 5]: 650 nM | Gametocytes mean ATP inhibition at 2µM [3]: -7.16%

SMILES: CCn1c(-c2nonc2N)nc2c(-c3cccc(NC(=O)Nc4cccc(Cl)c4)c3)ncc(OCCCN)c21.O=C(O)C(F)(F)F [TCMDC-136193]
IC50 [1, 6]: 940 nM | HepG2 cells mean TOX50 (HepG2 cells; mean): 80.36 µM | IC50 [2]: 1180 nM | Gametocytes mean ATP inhibition at 2µM (%) [3]: -8.58%

SMILES: c1ccc(C23N=C(Nc4nc5ccccc5[nH]4)NC2(c2ccccc2)NC(Nc2nc4ccccc4[nH]2)=N3)cc1 (centres unmarked) [TCMDC-139082]
IC50 [1, 6]: 280 nM | HepG2 cells mean TOX50 (HepG2 cells; mean): 58.90 µM | IC50 [2]: 140 nM | Gametocytes mean ATP inhibition at 2µM (%) [3]: 65.26%

SMILES: COc1ccc(CNC2Cc3ccccc3C2)cc1-c1ccc(OC)c(S(=O)(=O)NCCN2CCCC2)c1.O=C(O)C(F)(F)F [TCMDC-132251]
IC50 [1, 4]: 770 nM | HepG2 cells mean TOX50 (HepG2 cells; HepG2 cells; mean): 7.17 µM | IC50 [2, 5]: 2700 nM | Gametocytes mean ATP inhibition at 2µM [3]: 24.03%

SMILES: CC(C)(C)c1ccc(CN2CCC(CNC(=O)c3cc(-c4ccccc4Cl)cs3)C2)cc1.O=C(O)C(F)(F)F (centres unmarked) [TCMDC-134445]
IC50 [1, 4]: 860 nM | HepG2 cells mean TOX50 (HepG2 cells; HepG2 cells; mean): 6.17 µM | IC50 [2, 5]: 1010 nM | Gametocytes mean ATP inhibition at 2µM [3]: -16.96%

SMILES: CCOc1cc2ccccc2cc1CNCCCCCCNCc1cc2ccccc2cc1OCC.CS(=O)(=O)O [TCMDC-137940]
IC50 [1, 6]: 980 nM | HepG2 cells mean TOX50 (HepG2 cells; mean): 6.06 µM | IC50 [2]: 1290 nM | Gametocytes mean ATP inhibition at 2µM (%) [3]: 2.59%

Further lines, with some results ahead:

IC50 [2, 5]: 1260 nM
SMILES: COc1ccc(CCNCCCCCCNCCc2ccc(-c3ccccc3)cc2)cc1OC.Cl [TCMDC-131267]
IC50 [1, 4]: 960 nM | HepG2 cells mean TOX50 (HepG2 cells; HepG2 cells; mean): 6.90 µM | Gametocytes mean ATP inhibition at 2µM [3]: 51.20%

IC50 [2, 5]: 2050 nM
SMILES: CCc1c(CCNCCCCCNCCc2ccc(OC)c(OC)c2CC)ccc(OC)c1OC.Cl [TCMDC-132064]
IC50 [1, 4]: 1110 nM | HepG2 cells mean TOX50 (HepG2 cells; HepG2 cells; mean): 4.68 µM | Gametocytes mean ATP inhibition at 2µM [3]: 27.40%

IC50 [2, 7]: 1210 nM
SMILES: CC(C)(CNC(=O)[C@H]1CCCN1)c1nc(-c2ccc(Cl)c(O)c2)c(-c2ccncc2)[nH]1.Cl [TCMDC-141060]
IC50 [1, 4]: 1270 nM | HepG2 cells mean TOX50 (HepG2 cells; mean; HepG2 cells): 32.74 µM | Gametocytes mean ATP inhibition at 2µM [3]: -7.23%

IC50 [2, 5]: 3340 nM
SMILES: OCCN1CCN(c2ccc(Nc3ccnc4cc5ccccc5cc34)cc2)CC1 [TCMDC-123915]
IC50 [1, 4]: 40 nM | HepG2 cells mean TOX50 (HepG2 cells; HepG2 cells; mean): 5.43 µM | Gametocytes mean ATP inhibition at 2µM [3]: 2.56%

IC50 [2, 5]: 1350 nM
SMILES: Cc1ccc(-c2nc3cc(NC(=O)c4ccc([N+](=O)[O-])o4)ccc3o2)cc1Cl [TCMDC-123657]
IC50 [1, 4]: 160 nM | HepG2 cells mean TOX50 (HepG2 cells; HepG2 cells; mean): 1.72 µM | Gametocytes mean ATP inhibition at 2µM [3]: 8.99%

IC50 [2]: 1150 nM
SMILES: Cl.c1ccc2c(C3CCN(CCCCOc4ccc5c(c4)CCN(CC4CC4)CC5)CC3)c[nH]c2c1 [TCMDC-136244]
IC50 [1, 6]: 980 nM | HepG2 cells mean TOX50 (HepG2 cells; mean): 5.15 µM | Gametocytes mean ATP inhibition at 2µM (%) [3]: -6.50%

IC50 [2, 5]: 1390 nM
SMILES: C[C@H](Cc1ccc(C[C@@H](C)NC[C@H](O)c2cccc(Cl)c2)cc1)NC[C@H](O)COc1ccccc1.Cl [TCMDC-131549]
IC50 [1, 4]: 1170 nM | HepG2 cells mean TOX50 (HepG2 cells; HepG2 cells; mean): 5.19 µM | Gametocytes mean ATP inhibition at 2µM [3]: 20.38%

IC50 [2, 5]: 2050 nM
SMILES: C[C@H](Cc1ccc(CCc2ccc(C[C@@H](C)NC[C@H](O)c3cccc(Cl)c3)cc2)cc1)NC[C@H](O)c1cccc(Cl)c1.Cl [TCMDC-131551]
IC50 [1, 4]: 940 nM | HepG2 cells mean TOX50 (HepG2 cells; HepG2 cells; mean): 4.27 µM | Gametocytes mean ATP inhibition at 2µM [3]: 51.33%

IC50 [2, 5]: 1250 nM
SMILES: CCC(CSC1CCCCC1)N(C)CCN(C)C(CC)CSC1CCCCC1.Cl (centres unmarked) [TCMDC-131456]
IC50 [1, 4]: 310 nM | HepG2 cells mean TOX50 (HepG2 cells; HepG2 cells; mean): 0.0654 µM | Gametocytes mean ATP inhibition at 2µM [3]: 36.19%

IC50 [2]: 2690 nM
SMILES: Cc1cc(N)c2cc(NC(=O)/C=C/c3ccc([N+](=O)[O-])cc3)ccc2n1 [TCMDC-139335]
IC50 [1, 6]: 670 nM | HepG2 cells mean TOX50 (HepG2 cells; mean): 5.37 µM | Gametocytes mean ATP inhibition at 2µM (%) [3]: -7.69%

IC50 [2, 7]: 2000 nM
SMILES: Cl.O=S(=O)(Nc1cc2c(cc1OCCCN1CCCCC1)CCNCC2)c1ccc(-c2ccc(Cl)cc2)cc1 [TCMDC-141753]
IC50 [1, 4]: 1010 nM | HepG2 cells mean TOX50 (HepG2 cells; mean; HepG2 cells): 4.37 µM | Gametocytes mean ATP inhibition at 2µM [3]: -0.045%

IC50 [2]: 640 nM
SMILES: Fc1cc(Cl)ccc1Nc1ccnc2cc(-c3ccc(CN4CCOCC4)o3)ccc12 [TCMDC-138393]
IC50 [1, 6]: 640 nM | HepG2 cells mean TOX50 (HepG2 cells; mean): 5.62 µM | Gametocytes mean ATP inhibition at 2µM (%) [3]: 87.52%

IC50 [2]: 1020 nM
SMILES: Cl.c1ccc2c(NCCCCCCCCNc3ccnc4ccccc34)ccnc2c1 [TCMDC-137751]
IC50 [1, 6]: 160 nM | HepG2 cells mean TOX50 (HepG2 cells; mean): 1.15 µM | Gametocytes mean ATP inhibition at 2µM (%) [3]: 39.31%

IC50 [2]: 770 nM
SMILES: CC(C)(C)c1ccc(-c2cc3c(ccc4nc(N)nc(N)c43)[nH]2)cc1 [TCMDC-137977]
IC50 [1, 6]: 110 nM | HepG2 cells mean TOX50 (HepG2 cells; mean): 1.86 µM | Gametocytes mean ATP inhibition at 2µM (%) [3]: 65.65%

IC50 [2, 5]: 9660 nM
SMILES: Br.CC(C)(Cc1ccc(Cl)cc1)NCCCCCCNCCc1ccc(O)c(O)c1 [TCMDC-131277]
IC50 [1, 4]: 1200 nM | HepG2 cells mean TOX50 (HepG2 cells; HepG2 cells; mean): 10.97 µM | Gametocytes mean ATP inhibition at 2µM [3]: 53.83%
